From ChEMBL document CHEMBL1129864, “A new series of selective COX-2 inhibitors: 5,6-diarylthiazolo[3,2-b][1,2,4]triazoles” (Bioorg Med Chem Lett, 1997)

Legend:
[1] = Percentage recovery after 3h incubation with rat hapatocytes was determined; format: ADME, organism-based; details: hepatocytes, read-out: Recovery
[2] = biological target: T1, Prostaglandin G/H synthase 2 (Homo sapiens, UniProt P35354); format: cell-based, CHO
T1 sequence (P35354 whole entry): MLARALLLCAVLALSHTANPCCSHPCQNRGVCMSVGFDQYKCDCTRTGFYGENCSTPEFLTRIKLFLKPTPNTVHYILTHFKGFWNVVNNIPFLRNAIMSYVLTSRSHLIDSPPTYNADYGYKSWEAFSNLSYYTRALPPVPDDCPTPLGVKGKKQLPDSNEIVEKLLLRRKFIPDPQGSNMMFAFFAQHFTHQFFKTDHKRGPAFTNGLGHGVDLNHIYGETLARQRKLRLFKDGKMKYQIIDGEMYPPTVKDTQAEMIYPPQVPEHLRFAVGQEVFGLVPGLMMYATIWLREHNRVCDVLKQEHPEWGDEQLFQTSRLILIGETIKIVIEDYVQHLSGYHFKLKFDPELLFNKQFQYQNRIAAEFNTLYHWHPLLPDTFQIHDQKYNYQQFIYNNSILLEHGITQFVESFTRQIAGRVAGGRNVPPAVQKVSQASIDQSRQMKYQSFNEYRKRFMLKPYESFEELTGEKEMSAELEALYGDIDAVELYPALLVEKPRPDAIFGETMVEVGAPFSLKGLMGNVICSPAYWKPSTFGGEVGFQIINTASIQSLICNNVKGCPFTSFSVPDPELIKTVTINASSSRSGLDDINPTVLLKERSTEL
Description: Tested in vitro for the ability to inhibit Prostaglandin G/H synthase 2 in chinese hamster ovary (CHO) cells

[3] = biological target: Prostaglandin G/H synthase 1 (Homo sapiens, UniProt P23219)
Prostaglandin G/H synthase 1, sequence (P23219 whole entry): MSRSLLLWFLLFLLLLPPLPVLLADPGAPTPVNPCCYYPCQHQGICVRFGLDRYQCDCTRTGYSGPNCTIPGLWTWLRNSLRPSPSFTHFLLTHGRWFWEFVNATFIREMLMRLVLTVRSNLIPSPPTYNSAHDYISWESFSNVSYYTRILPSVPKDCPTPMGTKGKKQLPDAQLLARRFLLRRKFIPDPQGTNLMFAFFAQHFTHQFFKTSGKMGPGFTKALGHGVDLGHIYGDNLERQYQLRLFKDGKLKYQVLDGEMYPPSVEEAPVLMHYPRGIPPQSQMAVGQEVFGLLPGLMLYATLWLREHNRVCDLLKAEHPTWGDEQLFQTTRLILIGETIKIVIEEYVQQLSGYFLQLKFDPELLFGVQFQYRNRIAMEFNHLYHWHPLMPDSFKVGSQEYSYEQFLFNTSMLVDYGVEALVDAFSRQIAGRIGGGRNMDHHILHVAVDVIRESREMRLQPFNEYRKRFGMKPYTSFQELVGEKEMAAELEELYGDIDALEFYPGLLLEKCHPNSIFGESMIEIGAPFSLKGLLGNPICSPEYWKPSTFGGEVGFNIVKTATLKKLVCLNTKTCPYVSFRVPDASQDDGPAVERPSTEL
Description: Tested in vitro for the ability to inhibit Prostaglandin G/H synthase 1 in chinese hamster ovary (CHO) cells

[4] = biological target: T1, Prostaglandin G/H synthase 2; format: organism-based, Blood
Description: In vivo ability to inhibit Prostaglandin G/H synthase 2 in human whole blood assay

[5] = organism: Rattus norvegicus; test: Plasma clearance in rat; format: ADME, organism-based; details: in vivo
[6] = Bioavailability at 4 hr after administration of 5 mg/kg dose peroral in rat; format: ADME, organism-based; details: in vivo, po
[7] = Maximum concentration at 4 hr after administration of 5 mg/kg dose peroral in rat; format: ADME, organism-based; parameters: dose 5 mg/kg, route oral; details: in vivo, po
[8] = organism: Rattus norvegicus; test: Intrinsic activity in the rat pyresis assay; format: functional
[9] = organism: Rattus norvegicus; test: Intrinsic activity in the rat hyperalgesia assay; format: functional; details: read-out: ID50 (the source's name)
[10] = tested on: Rattus norvegicus; test: Intrinsic activity in the rat paw edema model; format: functional

Row | SMILES | IC50 [2] | IC50 [3] | IC50 [4] | further results
1 | CS(=O)(=O)c1ccc(-c2c(-c3ccccc3)nc3sccn23)cc1 |  |  |  | remaining at 3 h [1]: < 10%
2 | CS(=O)(=O)c1ccc(-c2sc3nc(C(F)(F)F)nn3c2-c2cccc(F)c2)cc1 | 0.013 µM | 8.5 µM |  | 
3 | CCc1nc2sc(-c3ccc(S(C)(=O)=O)cc3)c(-c3ccccc3)n2n1 | 0.015 µM | 2.4 µM |  | 
4 | CS(=O)(=O)c1ccc(-c2sc3ncnn3c2-c2ccc(F)cc2)cc1 | 0.036 µM | 15 µM |  | 
5 | CS(=O)(=O)c1ccc(-c2c(-c3ccccc3)sc3nc(C(F)(F)F)nn23)cc1 | > 50 µM | 9 µM |  | 
6 | C=Cc1nc2sc(-c3ccc(S(C)(=O)=O)cc3)c(-c3ccccc3)n2n1 | 0.006 µM | 9.6 µM | 4.1 µM | 
7 | CS(=O)(=O)c1ccc(-c2sc3ncnn3c2-c2ccccc2)cc1 | 0.01 µM | 43 µM | 2.3 µM | Clearance [5]: 13 mL/min/kg; bioavailability [6]: ~100%; Cmax [7]: 7.2 µM; remaining at 3 h [1]: > 95%; ED50 [8]: 1 mg/kg; ED50 [9]: 1 mg/kg; ED50 [10]: 1.7 mg/kg
8 | CS(=O)(=O)c1ccc(-c2c(-c3ccccc3)sc3ncnn23)cc1 | 0.032 µM | > 50 µM | > 30 µM | 
9 | CC(C)c1nc2sc(-c3ccc(S(C)(=O)=O)cc3)c(-c3ccccc3)n2n1 | 0.011 µM | 0.6 µM |  | 

Continued, in another order:

Row | IC50 [2] | IC50 [3] | IC50 [4] | SMILES | further results
10 | 0.08 µM | > 50 µM |  | CS(=O)(=O)c1ccc(-c2sc3ncnn3c2-c2cc(F)cc(F)c2)cc1 | 
11 |  | 1.1 µM |  | CS(=O)(=O)c1ccc(-c2sc3nc(C(F)(F)F)nn3c2-c2ccccc2)cc1 | 
12 | 0.23 µM | 2.1 µM |  | CS(=O)(=O)c1ccc(-c2c(-c3ccccc3)sc3nncn23)cc1 | 
13 | 0.022 µM | > 50 µM | 4.2 µM | CS(=O)(=O)c1ccc(-c2sc3ncnn3c2-c2cccc(F)c2)cc1 | 
14 | 0.45 µM | > 50 µM |  | CS(=O)(=O)c1ccc(-c2sc3nncn3c2-c2ccccc2)cc1 | 
15 | 0.26 µM | > 50 µM |  | COc1cccc(-c2c(-c3ccc(S(C)(=O)=O)cc3)sc3ncnn23)c1 | 
16 | 0.02 µM | > 50 µM | 10 µM | Cc1nc2sc(-c3ccc(S(C)(=O)=O)cc3)c(-c3ccccc3)n2n1 | 
17 | 0.15 µM | > 50 µM | 14 µM | Cc1nc2sc(-c3ccc(S(C)(=O)=O)cc3)c(-c3cccc(F)c3)n2n1 | 
18 | 0.048 µM | 30 µM | > 30 µM | CS(=O)(=O)c1ccc(-c2sc3ncnn3c2-c2ccc(F)c(F)c2)cc1 | 
19 | 0.003 µM | 0.61 µM |  | Cc1cccc(-c2c(-c3ccc(S(C)(=O)=O)cc3)sc3nc(C(F)(F)F)nn23)c1 | 
